Broadly, the IC50 is the concentration needed to halve the response being measured.

Data on 18 compounds can be found in patent US10544143B2, “4-azaindole compounds” (BRISTOL-MYERS SQUIBB COMPANY, priority 2017, dated 2020).

The target in one assay is human TLR8 (Homo sapiens (Human), UniProt Q9NR97). Briefly: TLR8 inhibition reporter assay (HEK-Blue SEAP).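 Note: SEAP driven by IFN-β minimal promoter carrying NF-κB and AP-1 sites, compounds dosed 0.05 nM to 50 µM for 22 h, inhibition scaled between agonist-plus-DMSO and reference-inhibitor wells.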 To be noted: read-out: TLR8 IC50; HEK-Blue cells overexpressing human TLR8, R848 15.9 μM stimulation, SEAP reporter. Background: In a reporter assay the amount or activity of a reporter protein is the signal.
Sequence of human TLR8 (Q9NR97 27-1041): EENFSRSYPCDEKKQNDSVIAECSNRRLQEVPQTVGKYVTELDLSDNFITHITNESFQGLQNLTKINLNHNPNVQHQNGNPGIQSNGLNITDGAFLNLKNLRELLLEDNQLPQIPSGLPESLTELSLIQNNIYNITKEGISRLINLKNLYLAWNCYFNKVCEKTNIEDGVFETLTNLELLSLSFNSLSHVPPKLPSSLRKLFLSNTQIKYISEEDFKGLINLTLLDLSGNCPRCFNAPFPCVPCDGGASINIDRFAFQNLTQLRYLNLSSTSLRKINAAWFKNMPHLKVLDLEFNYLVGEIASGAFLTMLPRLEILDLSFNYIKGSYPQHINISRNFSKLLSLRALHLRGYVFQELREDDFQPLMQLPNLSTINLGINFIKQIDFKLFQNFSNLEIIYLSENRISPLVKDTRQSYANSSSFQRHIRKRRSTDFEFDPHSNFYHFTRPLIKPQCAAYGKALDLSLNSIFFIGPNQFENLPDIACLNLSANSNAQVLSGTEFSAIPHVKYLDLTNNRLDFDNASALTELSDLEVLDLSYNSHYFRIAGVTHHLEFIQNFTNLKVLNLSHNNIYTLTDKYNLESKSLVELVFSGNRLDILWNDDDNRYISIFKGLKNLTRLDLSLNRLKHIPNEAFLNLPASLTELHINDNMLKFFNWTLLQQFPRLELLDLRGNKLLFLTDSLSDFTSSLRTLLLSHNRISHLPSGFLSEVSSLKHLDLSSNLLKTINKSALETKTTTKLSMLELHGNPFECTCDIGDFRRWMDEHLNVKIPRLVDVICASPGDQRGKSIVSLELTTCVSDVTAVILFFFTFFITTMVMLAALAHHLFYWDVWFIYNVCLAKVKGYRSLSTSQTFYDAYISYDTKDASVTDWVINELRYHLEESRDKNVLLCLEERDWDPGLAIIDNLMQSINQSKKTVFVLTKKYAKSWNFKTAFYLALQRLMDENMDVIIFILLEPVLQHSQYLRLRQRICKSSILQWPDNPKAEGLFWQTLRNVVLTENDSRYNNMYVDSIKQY
The target of the next assay is human TLR9 (Homo sapiens (Human), UniProt Q9NR96). As to the kind of experiment: TLR9 inhibition reporter assay (HEK-Blue SEAP).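 Note: SEAP driven by an IFN-β minimal promoter with NF-κB and AP-1 sites, read after 22 h, compounds dosed 0.05 nM–50 µM, inhibition scaled between agonist plus DMSO and reference-inhibitor wells.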 To be noted: read-out: TLR9 IC50; HEK-Blue cells overexpressing human TLR9, ODN2006 5 nM stimulation, SEAP reporter.
Sequence of human TLR9 (Q9NR96 26-1032): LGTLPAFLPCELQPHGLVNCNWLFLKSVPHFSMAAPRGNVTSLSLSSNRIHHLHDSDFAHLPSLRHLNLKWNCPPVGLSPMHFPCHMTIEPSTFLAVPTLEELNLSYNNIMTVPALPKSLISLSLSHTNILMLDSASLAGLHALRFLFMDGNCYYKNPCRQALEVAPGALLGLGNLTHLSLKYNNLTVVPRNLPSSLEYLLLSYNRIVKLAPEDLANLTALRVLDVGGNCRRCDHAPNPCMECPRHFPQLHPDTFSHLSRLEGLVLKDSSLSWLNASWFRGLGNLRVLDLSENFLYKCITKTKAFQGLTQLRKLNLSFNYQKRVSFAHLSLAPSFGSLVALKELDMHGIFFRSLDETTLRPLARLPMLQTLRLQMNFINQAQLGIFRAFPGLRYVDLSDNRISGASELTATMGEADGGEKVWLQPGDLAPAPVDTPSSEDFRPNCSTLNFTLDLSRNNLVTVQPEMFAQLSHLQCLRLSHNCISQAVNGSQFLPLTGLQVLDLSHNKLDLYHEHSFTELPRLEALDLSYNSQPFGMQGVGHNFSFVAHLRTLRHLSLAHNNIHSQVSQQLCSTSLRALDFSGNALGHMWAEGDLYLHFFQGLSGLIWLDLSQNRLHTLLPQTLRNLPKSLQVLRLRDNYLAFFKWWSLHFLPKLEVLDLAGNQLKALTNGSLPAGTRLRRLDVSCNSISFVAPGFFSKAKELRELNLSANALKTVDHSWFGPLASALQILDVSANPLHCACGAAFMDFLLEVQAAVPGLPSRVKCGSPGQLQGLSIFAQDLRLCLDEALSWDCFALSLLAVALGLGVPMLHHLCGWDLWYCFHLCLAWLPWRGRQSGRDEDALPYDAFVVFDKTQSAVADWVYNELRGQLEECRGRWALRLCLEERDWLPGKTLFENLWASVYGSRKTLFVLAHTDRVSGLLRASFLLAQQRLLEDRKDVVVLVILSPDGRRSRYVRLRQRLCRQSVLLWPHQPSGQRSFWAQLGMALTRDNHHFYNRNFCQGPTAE
Another assay has as its target human TLR7 (Homo sapiens (Human), UniProt Q9NYK1). As to the kind of experiment: TLR7 inhibition reporter assay (HEK-Blue SEAP). It is filed as cell-based. To be noted: HEK-Blue cells overexpressing human TLR7, gardiquimod 7.5 μM stimulation, SEAP reporter.

Sequence of human TLR7 (Q9NYK1 27-1049): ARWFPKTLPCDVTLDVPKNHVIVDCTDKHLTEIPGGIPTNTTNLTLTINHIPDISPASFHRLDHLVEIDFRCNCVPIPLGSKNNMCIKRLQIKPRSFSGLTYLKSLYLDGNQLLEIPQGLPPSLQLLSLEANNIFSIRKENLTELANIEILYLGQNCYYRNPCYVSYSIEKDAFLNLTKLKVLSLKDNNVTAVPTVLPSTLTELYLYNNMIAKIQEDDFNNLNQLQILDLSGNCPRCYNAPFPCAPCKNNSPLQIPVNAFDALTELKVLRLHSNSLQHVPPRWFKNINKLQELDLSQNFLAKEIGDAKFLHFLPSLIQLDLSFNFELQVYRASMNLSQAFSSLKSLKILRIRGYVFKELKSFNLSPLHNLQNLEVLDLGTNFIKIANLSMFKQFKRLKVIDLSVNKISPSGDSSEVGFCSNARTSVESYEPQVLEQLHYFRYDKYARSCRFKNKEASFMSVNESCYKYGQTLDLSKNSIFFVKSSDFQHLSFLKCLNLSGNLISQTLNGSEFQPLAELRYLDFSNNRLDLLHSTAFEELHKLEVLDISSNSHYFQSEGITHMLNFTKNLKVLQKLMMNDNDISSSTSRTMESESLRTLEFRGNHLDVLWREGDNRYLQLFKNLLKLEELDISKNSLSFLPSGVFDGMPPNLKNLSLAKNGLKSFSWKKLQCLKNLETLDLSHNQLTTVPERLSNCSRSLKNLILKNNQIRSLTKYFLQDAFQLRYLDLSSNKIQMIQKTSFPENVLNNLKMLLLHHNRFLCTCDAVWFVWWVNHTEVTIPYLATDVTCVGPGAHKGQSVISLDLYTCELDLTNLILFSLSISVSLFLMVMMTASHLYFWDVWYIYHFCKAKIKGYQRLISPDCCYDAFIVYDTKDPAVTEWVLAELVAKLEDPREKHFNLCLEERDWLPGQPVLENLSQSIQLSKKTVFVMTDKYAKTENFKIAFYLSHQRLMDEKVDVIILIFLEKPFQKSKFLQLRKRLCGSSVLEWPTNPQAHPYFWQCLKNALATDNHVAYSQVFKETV
Protocol for human TLR8: HEK-Blue™-cells (Invivogen) overexpressing human TLR7, TLR8 or TLR9 receptors were used for screening inhibitors of these receptors using an inducible SEAP (secreted embryonic alkaline phosphatase) reporter gene under the control of the IFN-β minimal promoter fused to five NF-κB and AP-1-binding sites. Briefly, cells are seeded into Greiner 384 well plates (15000 cells per well for TLR7, 20,000 for TLR8 and 25,000 for TLR9) and then treated with test compounds in DMSO to yield a final dose response concentration range of 0.05 nM-50 μM. After a 30 minute compound pre-treatment at room temperature, the cells are then stimulated with a TLR7 ligand (gardiquimod at a final concentration of 7.5 μM), TLR8 ligand (R848 at a final concentration of 15.9 μM) or TLR9 ligand (ODN2006 at a final concentration of 5 nM) to activate NF-κB and AP-1 which induce the production of SEAP. After a 22 hour incubation at 37° C., 5% CO2, SEAP levels are determined with the addition of HEK-Blue™ Detection reagent (Invivogen), a cell culture medium that allows for detection of SEAP, according to manufacturer's specifications.

Take `CNC1CCC(c2nc3c(C(C)C)c(-c4cc(OC)c5ncnn5c4)[nH]c3cc2F)CC1` (stereo not drawn) [Example 347]: the IC50 on human TLR8 was found to be 1 nM; at human TLR9 it was 2470 nM; against human TLR7, 0.27 nM.

Consider `CNC1CCC(c2nc3c(C(C)C)c(-c4cc(OC)c5ncnn5c4)[nH]c3cc2F)CC1` (stereo not drawn) [Example 348], for which the IC50 was found to be 8.3 nM on human TLR8, 6960 nM at human TLR9 and 0.82 nM at human TLR7.

With `Cc1c(-c2[nH]c3ccc(C4CCC(=O)CC4)nc3c2C(C)C)cn2ncnc2c1C` [Example 349], the values for the IC50 at human TLR8, at human TLR9 and against human TLR7 were 63 nM, > 50000 nM and 7.7 nM, respectively.

As to `Cc1c(-c2[nH]c3ccc(C4CCC(NC5COC5)CC4)nc3c2C(C)C)cn2ncnc2c1C` (stereo not drawn) [Example 350], the IC50 on human TLR8 stood at 1 nM; on human TLR9, 1160 nM; at human TLR7, 0.72 nM.

Regarding `Cc1c(-c2[nH]c3ccc(C4CCC(NC5COC5)CC4)nc3c2C(C)C)cn2ncnc2c1C` (stereo not drawn) [Example 351], the 50% inhibitory concentration (IC50) worked out at 4.3 nM on human TLR8, 1690 nM at human TLR9 and 2.3 nM against human TLR7.

For the compound `Cc1c(-c2[nH]c3ccc(C4CCC(NCC(=O)N(C)C)CC4)nc3c2C(C)C)cn2ncnc2c1C` (stereo not drawn) [Example 352], the IC50 was found to be 9.2 nM on human TLR8, 2320 nM on human TLR9 and 5.4 nM on human TLR7.

With `Cc1c(-c2[nH]c3ccc(C4CCC(N(C)C)CC4)nc3c2C(C)C)cn2ncnc2c1C` (stereo not drawn) [Example 353], the values for the IC50 at human TLR8, at human TLR9 and against human TLR7 were 0.96 nM, 940 nM and 0.64 nM, respectively.

As for `Cc1c(-c2[nH]c3ccc(C4CCC(NCC(=O)N(C)C)CC4)nc3c2C(C)C)cn2ncnc2c1C` (stereo not drawn) [Example 354], the results for the IC50 at human TLR8, on human TLR9 and against human TLR7 were 2.3 nM, 790 nM and 1 nM, respectively.

Regarding `Cc1c(-c2[nH]c3ccc(C4CCC(N(C)C)CC4)nc3c2C(C)C)cn2ncnc2c1C` (stereo not drawn) [Example 355], the IC50 worked out at 10 nM at human TLR8, 4500 nM at human TLR9 and 2.6 nM against human TLR7.

For the compound `Cc1c(-c2[nH]c3ccc(C4CCC(N(C)C)CC4)nc3c2C(C)C)cn2ncnc2c1C` (stereo not drawn) [Example 356], the IC50 was 5.1 nM at human TLR8, 2860 nM on human TLR9 and 2.8 nM on human TLR7.

In the case of `Cc1cnc(CNC2CCC(c3ccc4[nH]c(-c5cn6ncnc6c(C)c5C)c(C(C)C)c4n3)CC2)cn1` (stereo not drawn) [Example 357], the IC50 on human TLR8 stood at 4.4 nM; on human TLR9, 1050 nM; against human TLR7, 3.9 nM.

Turning to `Cc1c(-c2[nH]c3ccc(C4CCC(NC(C)C)CC4)nc3c2C(C)C)cn2ncnc2c1C` (stereo not drawn) [Example 358], the IC50 was 2.8 nM on human TLR8, 1320 nM on human TLR9 and 0.95 nM against human TLR7.

Regarding `Cc1cnc(CNC2CCC(c3ccc4[nH]c(-c5cn6ncnc6c(C)c5C)c(C(C)C)c4n3)CC2)cn1` (stereo not drawn) [Example 359], the IC50 on human TLR8 amounted to 29 nM; at human TLR9, 4870 nM; on human TLR7 it was 9.1 nM.

Turning to `Cc1c(-c2[nH]c3ccc(C4CCC(N5CCCC5)CC4)nc3c2C(C)C)cn2ncnc2c1C` (stereo not drawn) [Example 360], the IC50 at human TLR8 stood at 3.4 nM; on human TLR9, 1410 nM; on human TLR7 it was 1.3 nM.

For `Cc1c(-c2[nH]c3ccc(C4CCC(N(C)CCC#N)CC4)nc3c2C(C)C)cn2ncnc2c1C` (stereo not drawn) [Example 361], the IC50 on human TLR8 was 1 nM; at human TLR9 it was 1250 nM; against human TLR7, 0.79 nM.

On to `Cc1c(-c2[nH]c3ccc(C4CCC(N5CCOCC5)CC4)nc3c2C(C)C)cn2ncnc2c1C` (stereo not drawn) [Example 362], for which the IC50 stood at 5.1 nM at human TLR8, 1630 nM on human TLR9 and 1.6 nM against human TLR7.

In the case of `Cc1c(-c2[nH]c3ccc(C4CCC(NC(C)C)CC4)nc3c2C(C)C)cn2ncnc2c1C` (stereo not drawn) [Example 363], the IC50 at human TLR8 was 6.6 nM; on human TLR9, 1480 nM; at human TLR7, 3.3 nM.

For `Cc1c(-c2[nH]c3ccc(C4CCC(N(C)C(C)C)CC4)nc3c2C(C)C)cn2ncnc2c1C` (stereo not drawn) [Example 364], the IC50 at human TLR8 was found to be 9.6 nM; at human TLR9, 2520 nM; against human TLR7 it was 1.5 nM.
